Assays:
Assay in all cases: biochemical
Design in all cases: KINOMEscan competition binding panel (Eurofins DiscoverX), single concentration, % inhibition
[1] = target: BMX (Homo sapiens, UniProt P51813); conditions: read-out: 7 at 1 µM % inhibition
Summary of the method: (§1)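 Values come from single-concentration (1 µM) profiling in the Eurofins DiscoverX KINOMEscan competition-binding platform, which covers over 400 kinases.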

[2] = target: NEK5 (Homo sapiens, UniProt Q6P3R8); conditions: read-out: 7 at 1 µM % inhibition
Chain of NEK5 (Q6P3R8 whole entry): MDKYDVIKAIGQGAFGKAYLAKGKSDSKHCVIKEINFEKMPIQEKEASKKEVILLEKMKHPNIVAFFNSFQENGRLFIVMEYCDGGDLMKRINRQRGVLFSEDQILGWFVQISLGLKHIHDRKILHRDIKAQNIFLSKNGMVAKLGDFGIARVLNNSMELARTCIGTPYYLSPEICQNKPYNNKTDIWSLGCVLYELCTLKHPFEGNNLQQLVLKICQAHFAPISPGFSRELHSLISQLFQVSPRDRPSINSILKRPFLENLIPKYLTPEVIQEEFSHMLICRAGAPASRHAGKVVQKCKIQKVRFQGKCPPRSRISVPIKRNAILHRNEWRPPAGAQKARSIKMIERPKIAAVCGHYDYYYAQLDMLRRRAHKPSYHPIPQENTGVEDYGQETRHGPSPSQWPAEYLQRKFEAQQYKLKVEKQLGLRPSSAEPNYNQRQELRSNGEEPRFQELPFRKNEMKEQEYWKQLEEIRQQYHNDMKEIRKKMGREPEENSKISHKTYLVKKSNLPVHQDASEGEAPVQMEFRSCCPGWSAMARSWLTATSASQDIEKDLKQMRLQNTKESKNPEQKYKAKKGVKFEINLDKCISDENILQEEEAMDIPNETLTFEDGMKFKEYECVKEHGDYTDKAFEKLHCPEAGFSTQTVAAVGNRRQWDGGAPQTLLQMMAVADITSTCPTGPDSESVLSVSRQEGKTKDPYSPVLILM
Summary of the method: as §1

[3] = target: PKNB(M.tuberculosis) (Mycobacterium tuberculosis, UniProt P9WI81); conditions: read-out: 7 at 1 µM % inhibition (pathogen kinases)
Summary of the method: as §1

[4] = target: T1, NIK (Homo sapiens, UniProt Q99558); conditions: read-out: 7 at 1 µM % inhibition
T1 construct: gene MAP3K14
T1 sequence (Q99558 whole entry): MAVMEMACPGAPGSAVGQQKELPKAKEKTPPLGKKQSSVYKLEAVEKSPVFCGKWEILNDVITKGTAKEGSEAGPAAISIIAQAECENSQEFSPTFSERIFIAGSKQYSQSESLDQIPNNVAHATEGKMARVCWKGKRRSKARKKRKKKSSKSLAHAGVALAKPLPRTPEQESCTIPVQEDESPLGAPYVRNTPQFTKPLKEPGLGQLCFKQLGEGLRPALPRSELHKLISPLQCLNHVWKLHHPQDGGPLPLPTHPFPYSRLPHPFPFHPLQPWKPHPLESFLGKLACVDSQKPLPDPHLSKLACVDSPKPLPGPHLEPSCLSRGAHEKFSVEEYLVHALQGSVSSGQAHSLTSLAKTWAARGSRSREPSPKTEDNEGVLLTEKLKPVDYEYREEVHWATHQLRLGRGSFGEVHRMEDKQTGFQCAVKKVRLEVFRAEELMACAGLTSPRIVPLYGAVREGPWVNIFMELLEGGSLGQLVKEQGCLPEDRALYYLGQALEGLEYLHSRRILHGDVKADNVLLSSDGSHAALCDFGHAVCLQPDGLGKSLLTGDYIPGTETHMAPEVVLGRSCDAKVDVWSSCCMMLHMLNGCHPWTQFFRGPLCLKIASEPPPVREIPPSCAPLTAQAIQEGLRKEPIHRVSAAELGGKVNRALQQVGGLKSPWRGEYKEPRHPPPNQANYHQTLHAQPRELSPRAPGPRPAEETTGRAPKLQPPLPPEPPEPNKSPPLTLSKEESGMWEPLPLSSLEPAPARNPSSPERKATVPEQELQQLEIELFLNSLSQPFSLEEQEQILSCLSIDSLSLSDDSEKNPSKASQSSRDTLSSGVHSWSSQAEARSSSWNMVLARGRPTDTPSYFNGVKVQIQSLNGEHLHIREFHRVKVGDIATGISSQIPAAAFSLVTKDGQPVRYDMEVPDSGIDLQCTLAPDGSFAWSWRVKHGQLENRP
Summary of the method: as §1

[5] = target: CAMKK1 (Homo sapiens, UniProt Q8N5S9); conditions: read-out: 7 at 1 µM % inhibition
Summary of the method: as §1

[6] = target: SRPK3 (Homo sapiens, UniProt Q9UPE1); conditions: read-out: 7 at 1 µM % inhibition
Summary of the method: as §1

[7] = target: T2, SIK (Homo sapiens, UniProt P57059); conditions: read-out: 7 at 1 µM % inhibition
T2 construct: gene SIK1
Summary of the method: as §1

[8] = target: NEK2 (Homo sapiens, UniProt P51955); conditions: read-out: 7 at 1 µM % inhibition
Chain of NEK2 (P51955 whole entry): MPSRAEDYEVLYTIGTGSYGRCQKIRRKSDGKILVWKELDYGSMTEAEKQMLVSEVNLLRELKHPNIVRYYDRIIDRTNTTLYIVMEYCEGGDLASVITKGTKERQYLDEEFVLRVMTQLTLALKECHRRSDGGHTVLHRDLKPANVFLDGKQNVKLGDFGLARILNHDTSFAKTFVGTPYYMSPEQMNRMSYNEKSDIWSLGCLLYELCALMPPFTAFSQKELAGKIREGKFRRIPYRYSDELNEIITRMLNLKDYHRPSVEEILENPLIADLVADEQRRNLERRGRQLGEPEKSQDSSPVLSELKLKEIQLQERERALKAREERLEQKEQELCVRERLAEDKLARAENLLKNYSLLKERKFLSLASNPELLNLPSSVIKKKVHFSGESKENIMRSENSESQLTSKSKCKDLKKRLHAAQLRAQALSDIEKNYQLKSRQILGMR
Summary of the method: as §1

[9] = target: DYRK1A (Homo sapiens, UniProt Q13627); conditions: read-out: 7 at 1 µM % inhibition
Summary of the method: as §1

[10] = target: STK39 (Homo sapiens, UniProt Q9UEW8); conditions: read-out: 7 at 1 µM % inhibition
Summary of the method: as §1

[11] = target: T3, YSK1 (Homo sapiens, UniProt O00506); conditions: read-out: 7 at 1 µM % inhibition
T3 construct: gene STK25
Summary of the method: as §1

[12] = target: EGFR(G719C) (Homo sapiens, UniProt P00533, G719C); conditions: read-out: 7 at 1 µM % inhibition
Summary of the method: as §1

[13] = target: EPHA7 (Homo sapiens, UniProt Q15375); conditions: read-out: 7 at 1 µM % inhibition
Summary of the method: as §1

[14] = target: PIK3C2B (Homo sapiens, UniProt O00750); conditions: read-out: 7 at 1 µM % inhibition
Summary of the method: as §1

[15] = target: CAMK1 (Homo sapiens, UniProt Q14012); conditions: read-out: 7 at 1 µM % inhibition
Summary of the method: as §1

[16] = target: T4, S6K1 (Homo sapiens, UniProt P23443); conditions: read-out: 7 at 1 µM % inhibition
T4 construct: gene RPS6KB1
T4 sequence (P23443 whole entry): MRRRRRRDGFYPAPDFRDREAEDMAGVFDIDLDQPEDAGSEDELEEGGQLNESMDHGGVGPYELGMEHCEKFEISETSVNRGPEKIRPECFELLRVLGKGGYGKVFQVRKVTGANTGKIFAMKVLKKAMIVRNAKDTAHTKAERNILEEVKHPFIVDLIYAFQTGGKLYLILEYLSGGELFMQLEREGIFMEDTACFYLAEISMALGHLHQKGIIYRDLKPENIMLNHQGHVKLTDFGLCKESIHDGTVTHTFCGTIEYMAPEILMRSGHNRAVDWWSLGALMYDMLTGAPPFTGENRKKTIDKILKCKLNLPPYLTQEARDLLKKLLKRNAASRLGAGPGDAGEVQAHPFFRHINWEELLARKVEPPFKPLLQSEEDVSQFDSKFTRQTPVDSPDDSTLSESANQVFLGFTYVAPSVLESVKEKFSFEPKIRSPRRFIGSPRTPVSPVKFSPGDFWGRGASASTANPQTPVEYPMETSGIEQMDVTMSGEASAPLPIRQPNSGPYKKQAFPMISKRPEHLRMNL
Summary of the method: as §1

[17] = target: T5, IKK-alpha (Homo sapiens, UniProt O15111); conditions: read-out: 7 at 1 µM % inhibition
T5 construct: gene CHUK
T5 sequence (O15111 whole entry): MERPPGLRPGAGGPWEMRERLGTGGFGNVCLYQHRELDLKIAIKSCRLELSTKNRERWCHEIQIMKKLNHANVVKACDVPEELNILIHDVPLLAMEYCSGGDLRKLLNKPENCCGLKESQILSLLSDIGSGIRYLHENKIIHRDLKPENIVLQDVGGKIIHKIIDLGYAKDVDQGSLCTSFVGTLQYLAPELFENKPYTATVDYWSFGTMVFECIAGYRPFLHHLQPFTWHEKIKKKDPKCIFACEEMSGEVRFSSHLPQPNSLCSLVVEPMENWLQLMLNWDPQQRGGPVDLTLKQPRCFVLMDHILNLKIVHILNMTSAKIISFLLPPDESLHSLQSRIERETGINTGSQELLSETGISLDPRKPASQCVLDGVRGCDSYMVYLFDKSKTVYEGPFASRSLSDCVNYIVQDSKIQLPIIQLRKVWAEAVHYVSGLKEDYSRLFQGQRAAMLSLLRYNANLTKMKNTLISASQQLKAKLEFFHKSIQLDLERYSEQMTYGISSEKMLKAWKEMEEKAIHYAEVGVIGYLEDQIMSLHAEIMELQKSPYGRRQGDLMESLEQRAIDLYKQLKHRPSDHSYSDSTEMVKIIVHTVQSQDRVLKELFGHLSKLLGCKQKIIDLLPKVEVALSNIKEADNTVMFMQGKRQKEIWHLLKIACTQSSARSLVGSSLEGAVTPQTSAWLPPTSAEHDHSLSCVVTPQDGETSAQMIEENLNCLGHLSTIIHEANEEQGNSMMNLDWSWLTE
Summary of the method: as §1

[18] = target: T6, ASK2 (Homo sapiens, UniProt O95382); conditions: read-out: 7 at 1 µM % inhibition
T6 construct: gene MAP3K6
Summary of the method: as §1

[19] = target: T7, MLK1 (Homo sapiens, UniProt P80192); conditions: read-out: 7 at 1 µM % inhibition
T7 construct: gene MAP3K9
Summary of the method: as §1

[20] = target: EGFR(L747-S752del, P753S) (Homo sapiens, UniProt P00533, DEL747-752/P753S); conditions: read-out: 7 at 1 µM % inhibition
Chain of EGFR(L747-S752del, P753S) (P00533 with tags, fused parts or gaps DEL747-752/P753S): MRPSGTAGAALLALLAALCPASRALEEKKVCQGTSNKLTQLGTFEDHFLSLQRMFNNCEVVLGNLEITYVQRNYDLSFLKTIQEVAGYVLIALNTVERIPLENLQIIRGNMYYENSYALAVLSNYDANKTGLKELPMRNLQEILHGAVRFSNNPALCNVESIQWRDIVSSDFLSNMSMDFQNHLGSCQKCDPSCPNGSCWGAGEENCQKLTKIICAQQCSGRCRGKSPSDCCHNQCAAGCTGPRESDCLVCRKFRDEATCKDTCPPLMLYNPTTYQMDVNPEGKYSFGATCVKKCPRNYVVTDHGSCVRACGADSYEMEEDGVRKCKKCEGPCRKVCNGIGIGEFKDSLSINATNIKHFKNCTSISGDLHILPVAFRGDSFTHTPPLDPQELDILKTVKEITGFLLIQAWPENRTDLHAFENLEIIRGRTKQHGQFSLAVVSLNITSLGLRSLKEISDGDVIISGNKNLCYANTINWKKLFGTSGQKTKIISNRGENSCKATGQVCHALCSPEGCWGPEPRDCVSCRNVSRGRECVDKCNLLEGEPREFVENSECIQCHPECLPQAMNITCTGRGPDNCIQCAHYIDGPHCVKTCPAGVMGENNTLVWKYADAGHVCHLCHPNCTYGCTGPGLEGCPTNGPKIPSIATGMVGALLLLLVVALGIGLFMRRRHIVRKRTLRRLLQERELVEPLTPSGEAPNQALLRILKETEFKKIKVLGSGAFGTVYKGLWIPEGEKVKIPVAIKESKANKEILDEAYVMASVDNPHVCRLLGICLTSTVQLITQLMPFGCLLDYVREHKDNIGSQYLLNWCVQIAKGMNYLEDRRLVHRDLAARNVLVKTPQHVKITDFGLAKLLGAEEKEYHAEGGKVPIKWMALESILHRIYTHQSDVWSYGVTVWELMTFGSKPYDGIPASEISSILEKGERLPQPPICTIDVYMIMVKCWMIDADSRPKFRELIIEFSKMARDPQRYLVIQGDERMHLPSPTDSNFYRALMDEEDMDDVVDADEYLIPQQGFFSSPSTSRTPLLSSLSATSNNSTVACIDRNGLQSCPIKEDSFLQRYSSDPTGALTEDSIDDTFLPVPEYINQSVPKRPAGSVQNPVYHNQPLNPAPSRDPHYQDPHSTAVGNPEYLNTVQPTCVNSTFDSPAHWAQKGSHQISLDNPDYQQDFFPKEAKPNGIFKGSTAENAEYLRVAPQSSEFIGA
Summary of the method: as §1

[21] = target: T8, NDR1 (Homo sapiens, UniProt Q15208); conditions: read-out: 7 at 1 µM % inhibition
T8 construct: gene STK38
Summary of the method: as §1

[22] = target: CSNK1E (Homo sapiens, UniProt P49674); conditions: read-out: 7 at 1 µM % inhibition
Chain of CSNK1E (P49674 whole entry): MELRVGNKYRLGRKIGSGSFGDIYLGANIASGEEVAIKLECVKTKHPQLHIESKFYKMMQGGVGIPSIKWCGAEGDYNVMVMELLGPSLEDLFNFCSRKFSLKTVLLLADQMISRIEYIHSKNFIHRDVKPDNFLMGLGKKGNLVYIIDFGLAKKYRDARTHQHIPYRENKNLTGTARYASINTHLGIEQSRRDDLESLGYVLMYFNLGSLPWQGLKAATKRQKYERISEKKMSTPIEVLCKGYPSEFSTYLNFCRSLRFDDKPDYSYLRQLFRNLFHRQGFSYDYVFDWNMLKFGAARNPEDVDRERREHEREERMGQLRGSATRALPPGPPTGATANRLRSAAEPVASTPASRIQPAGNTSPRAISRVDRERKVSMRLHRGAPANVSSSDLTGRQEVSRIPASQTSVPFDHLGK
Summary of the method: as §1

[23] = target: DAPK2 (Homo sapiens, UniProt Q9UIK4); conditions: read-out: 7 at 1 µM % inhibition
Summary of the method: as §1

[24] = target: GSK3B (Homo sapiens, UniProt P49841); conditions: read-out: 7 at 1 µM % inhibition
Summary of the method: as §1

Compound: CNS(=O)(=O)c1ccc(N(C)C)c(Nc2ncnc3cc(OC)c(OC)cc23)c1 [compound 7, 3-((6,7-dimethoxyquinazolin-4-yl)amino)-4-(dimethylamino)-N-methylbenzenesulfonamide]
- inhibition at 1 µM [1]: 0%
- inhibition at 1 µM [2]: 25%
- inhibition at 1 µM [3]: 23%
- inhibition at 1 µM [4]: 0%
- inhibition at 1 µM [5]: 5%
- inhibition at 1 µM [6]: 0%
- inhibition at 1 µM [7]: 17%
- inhibition at 1 µM [8]: 2%
- inhibition at 1 µM [9]: 0%
- inhibition at 1 µM [10]: 8%
- inhibition at 1 µM [11]: 5%
- inhibition at 1 µM [12]: 0%
- inhibition at 1 µM [13]: 0%
- inhibition at 1 µM [14]: 77%
- inhibition at 1 µM [15]: 0%
- inhibition at 1 µM [16]: 23%
- inhibition at 1 µM [17]: 68%
- inhibition at 1 µM [18]: 30%
- inhibition at 1 µM [19]: 10%
- inhibition at 1 µM [20]: 0%
- inhibition at 1 µM [21]: 0%
- inhibition at 1 µM [22]: 0%
- inhibition at 1 µM [23]: 0%
- inhibition at 1 µM [24]: 0%
